Measured values as given in patent US20150368642A1, “LNA OLIGONUCLEOTIDE CARBOHYDRATE CONJUGATES” (HOFFMANN-LA ROCHE INC., priority 2013, published 2015).
l = locked nucleic acid (LNA); d = 2'-deoxy (DNA)

Legend:
[1] = Oligonucleotide content in liver and kidney by sandwich ELISA (Example 5); format: in vivo, C57BL6/J mice; conditions: mice
From the text: (§1) Capital letters are LNA nucleosides (such as beta-D-oxy LNA), lower case letters are a DNA nucleoside. Subscript s represents a phosphorothioate internucleoside linkage (region A). LNA cytosines are optionally 5-methyl cytosine. The 2PO linker (region B) is 5′ to the sequence region A, and comprises of two DNA nucleosides linked by phosphodiester linkage, with the internucleoside linkage between the 3′ DNA nucleoside of region A and the 5′ LNA nucleoside of region A also being phosphodiester. A linkage group (Y) may be used to link the conjugate group, when present, to region B, or A (SEQ ID NO 13 and 11). […]
RNA was isolated from liver and kidney and subjected to qPCR with ApoB specific primers and probe to analyse for ApoB mRNA knockdown. The oligonucleotide content was measured using ELISA method and total cholesterol in serum was measured. […]
(§2) For each sample 0.5 μg total RNA was adjusted to (10.8 μl) with RNase free H2O and mixed with 2 μl random decamers (50 μM) and 4 μl dNTP mix (2.5 mM each dNTP) and heated to 70° C. for 3 min after which the samples were rapidly cooled on ice. […] Oligonucleotide content in liver and kidney was measured by sandwich ELISA method.

[2] = test system: ApoB; assay: Non-human primate study, serum ApoB and LDL-C (ApoB conjugates); format: in vivo, cynomolgus monkeys; conditions: Example 7; single i.v. dose; FIG. 16
Description: (§3) The primary objective for this study is to investigate selected lipid markers over 7 weeks after a single slow bolus injection of anti-PCSK9 and anti-ApoB LNA conjugated to GalNac cluster (Conj2a) to cynomolgus monkeys and assess the potential toxicity of compounds in monkey. The compounds which were prepared in sterile saline (0.9%) at an initial concentration of 0.625 and 2.5 mg/ml).
(§4) Male (PCSK9) or female monkeys (ApoB) monkeys of at least 24 months old are used, and given free access to tap water and 180 g of MWM(E) SQC SHORT expanded diet (Dietex France, SDS, Saint Gratien, France) will be distributed daily per animal. The total quantity of food distributed in each cage will be calculated according to the number of animals in the cage on that day. In addition, fruit or vegetables will be given daily to each animal. The animals will be acclimated to the study conditions for a period of at least 14 days before the beginning of the treatment period. During this period, pre-treatment investigations will be performed. The animals are dosed i.v. at a dose if, for example, 0.25 mg/kg or 1 mg/kg. The dose volume will be 0.4 mL/kg. 2 animals are used per group. After three weeks, the data will be analyzed and a second group of animals using a higher or lower dosing regimen may be initiated—preliminary dose setting is 0.5 mg/kg and 1 mg/kg, or lower than that based on the first data set.
The dose formulations will be administered once on Day 1. Animals will be observed for a period of 7 weeks following treatment, and will be released from the study on Day 51. Day 1 corresponds to the first day of the treatment period. Clinical observations and body weight and food intake (per group) will be recorded prior to and during the study.
The following parameters will be determined for all surviving animals at the occasions indicated below: • full biochemistry panel (complete list below)—on Days −8, 15 and 50, • liver Safety (ASAT, ALP, ALAT, TBIL and GGT only)—on Days 4, 8, 22 and 36, • lipid profile (Total cholesterol, HDL-C, LDL-C and Triglycerides) and Apo-B only—on Days −1, 4, 8, 22, 29, 36, and 43.
Blood (approximately 1.0 mL) is taken into lithium heparin tubes (using the ADVIA 1650 blood biochemistry analyzer): Apo-B, sodium, potassium, chloride, calcium, inorganic phosphorus, glucose, HDL-C, LDL-C, urea, creatinine, total bilirubin (TBIL), total cholesterol, triglycerides, alkaline phosphatase (ALP), alanine aminotransferase (ALAT), aspartate aminotransferase (ASAT), creatine kinase, gamma-glutamyl transferase (GGT), lactate dehydrogenase, total protein, albumin, albumin/globulin ratio.
Other Analysis: WO2011009697 & WO2010142805 provides the methods for the following analysis: qPCR, PCSK9/ApoB mRNA analysis, Other analysis includes PCSK9/ApoB protein ELISA, serum Lp(a) analysis with ELISA (Mercodia No. 10-1106-01), tissue and plasma oligonucleotide analysis (drug content), Extraction of samples, standard- and QC-samples, Oligonucleotide content determination by ELISA. […] There was no indication of hepatotoxicity or nephrotoxicity with the ApoB targeting compounds.

[3] = test system: ApoB mRNA; assay: Knock down of ApoB mRNA in liver and kidney (qPCR, Example 5); format: in vivo, C57BL6/J mice; conditions: mice; for knock down of ApoB mRNA: single iv or sc dose equimolar to 0.25 mg/kg, days 1-7, FIG. 8
From the text: Capital letters are LNA nucleosides (such as beta-D-oxy LNA), lower case letters are a DNA nucleoside. Subscript s represents a phosphorothioate internucleoside linkage (region A). LNA cytosines are optionally 5-methyl cytosine. The 2PO linker (region B) is 5′ to the sequence region A, and comprises of two DNA nucleosides linked by phosphodiester linkage, with the internucleoside linkage between the 3′ DNA nucleoside of region A and the 5′ LNA nucleoside of region A also being phosphodiester. A linkage group (Y) may be used to link the conjugate group, when present, to region B, or A (SEQ ID NO 13 and 11). C57BL6/J mice were injected either iv or sc with a single dose saline or 0.25 mg/kg unconjugated LNA-antisense oligonucleotide (SEQ ID N012) or equimolar amounts of LNA antisense oligonucleotides conjugated to GalNAc1, GalNAc2, or cholesterol (2PO) and sacrificed at days 1-7 according to the table below (experimental design).
(§5) RNA was isolated from liver and kidney and subjected to qPCR with ApoB specific primers and probe to analyse for ApoB mRNA knockdown. The oligonucleotide content was measured using ELISA method and total cholesterol in serum was measured.
C57BL/6JBom female animals, app. 20 g at arrival, were dosed with 10 ml per kg BW (according to day 0 bodyweight) i.v. or s.c. of the compound formulated in saline or saline alone according to the table above.
The animals were anaesthetised with 70% CO2-30% O2 and sacrificed by cervical dislocation according to the above table. One half of the large liver lobe and one kidney were minced and submerged in RNAlater. The other half of liver and the other kidney was frozen and used for tissue analysis. […]
as §2

[4] = test system: ApoB; assay: Total cholesterol in serum (Example 5); format: in vivo, C57BL6/J mice; conditions: mice, iv and sc administration, versus SEQ ID NO 12 and 14, FIG. 9
From the text: as §1, §5
Immediately before sacrifice retro-orbital sinus blood was collected using S-monovette Serum-Gel vials (Sarstedt, Nümbrecht, Germany) for serum preparation. Serum was analyzed for total cholesterol using ABX Pentra Cholesterol CP (Triolab, Brondby, Denmark) according to the manufacturer's instructions.

[5] = test system: PCSK9; assay: Non-human primate study, serum PCSK9 protein ELISA; format: in vivo; conditions: cynomolgus monkeys, single dose, entire length of the study
Description: as §3
as §4, with “During this period, pre-treatment investigations will be performed. The animals are dosed i.v. at a dose if, for example, 0.25 mg/kg or 1 mg/kg. The dose volume will be 0.4 mL/kg. 2 animals are used per group.” left out
The dose formulations will be administered once on Day 1. […] Clinical observations and body weight and food intake (per group) will be recorded prior to and during the study. […]

[6] = ALT in final serum (antimiR-122 study); format: in vivo, mouse; conditions: mice, final serum day 7
Description: Serum analysis for ALT, AST and cholesterol was performed on the “Cobas INTEGRA 400 plus” clinical chemistry platform (Roche Diagnostics), using 10 μl of serum.
(§6) An in vivo mouse study was performed using a total of 9 groups of mice (n=5). Each mouse was dosed i.v. on days 0, 2 and 4 with either 0.5 mg/kg or 2 mg/kg or equimolar doses of the GalNAc conjugated LNA's compared to parent LNA compound. A saline control group was included (see study set up in Tab. 1). Serum samples were taken 4 days pre administration, interim at day 4 and at endpoint day 7. Liver and kidney samples were stored in RNA later. Validation of miR122 knock down of miR122 was done as described in Obad Nat Genet. 2011 Mar. 20; 43(4):371-8 (FIG. 17). The cholesterol level in serum were analyzed as described in Elmen J, et al. LNA-mediated microRNA silencing in non-human primates. Nature. 2008; 452:896-899. (FIG. 18) and mRNA levels of two miR122 down regulated genes (Aldo A and Bckdk) were analyzed using standard QPCR assay techniques (FIG. 19). ALT was measured to assess tolerability of the compounds (FIG. 20).

[7] = test system: miR-122; assay: LNA antimiR GalNAc conjugates, miR122 knock down in mice; format: in vivo, mouse; conditions: for Aldo A and Bckdk mRNA: already in the low dose group (3×0.5 mg/kg), liver; for miR122 knock down in the liver: i.v. days 0, 2 and 4, day 7, compared to parent LNA; for total cholesterol levels: i.v. days 0, 2 and 4, serum pre-dose, day 4 and day 7
Description: as §6

Row | Substance | knock down of ApoB mRNA [3] | total cholesterol in serum [4] | ALT [6] | Aldo A and Bckdk mRNA [7] | miR122 knock down in the liver [7] | total cholesterol levels [7] | also measured
1 | SEQ ID NO 11: GsCsaststsgsgstsastsTsCsA, GalNAc cluster Conj2a; ApoB (GCATTGGTATTCA; listed as DNA, chemistry not fully specified) | knock down of ApoB mRNA better than the unconjugated ApoB LNA | better effect that the unconjugated and the cholesterol conjugated compounds | – | – | – | – | specific activity (activity relative to liver uptake) ([1]; iv dosing): higher specific activity than GalNAc 1 conjugate; pharmacology (serum ApoB and LDL-C) [2]: did not exhibit significant pharmacology
2 | SEQ ID NO 13: GsCsaststsgsgstsastsTsCsA, GalNAc cluster Conj1a; ApoB (GCATTGGTATTCA; sugars from the 5' end l2 d8 l3, all phosphorothioate, methylation of C not given here; GalNAc cluster Conj1a conjugated) | knock down of ApoB mRNA better than the unconjugated ApoB LNA | better effect that the unconjugated and the cholesterol conjugated compounds | – | – | – | – | tissue content of the oligonucleotides, uptake in liver ([1]; iv and sc, FIG. 10): very much uptake in liver; knock down of ApoB mRNA, iv versus sc dosing ([3]; single dose 0.36 mg/kg): iv dosing is better than sc dosing
3 | SEQ ID NO 28: AsAsTsgscstsascsasasasasCsCsCsA, GalNAc cluster Conj2a; PCSK9 (AATGCTACAAAACCCA; listed as DNA, chemistry not fully specified) | – | – | – | – | – | – | down regulation of PCSK9 (and LDL-C), onset and duration [5]: rapid and consistent down regulation of PCSK9 and LDL-C throughout the duration of the study
4 | SEQ ID NO 52: 5′-Conj1a^mCsAs^mCsAs^mCsTs^mCs^mC-3′ (CACACTCC; LNA, 5-methyl C, 5' GalNAc Conj1a, chemistry not fully specified) | – | – | increase in ALT | up regulation of Aldo A and Bckdk mRNA | remarkable improvement of miR122 knock down in the liver | decreased total cholesterol levels | –
5 | SEQ ID NO 54: 5′-Conj1a^mCsAs^mCsAs^mCsTs^mCs^mCca^mCsAs^mCsAs^mCsTs^mCs^mC-3′ (CACACTCCCACACACTCC; LNA, 5-methyl C, ca linker, 5' GalNAc Conj1a, chemistry not fully specified) | – | – | tendency to improve | up regulation of Aldo A and Bckdk mRNA | remarkable improvement of miR122 knock down in the liver | decreased total cholesterol levels | –
